The subject of series [1] is human colon carcinoma cell line HT29 wt. Description: Antiproliferative effect on the HT29 wt cell line (MTT assay). It is filed as cell-based. The following applies: incubation 48 h to 96 h. The procedure:
B-1. Determination of the Antiproliferative Effect on the HT29 Wt Cell Line:
A defined cell count of the human colon carcinoma cell line HT29 wt (wild type) was sown in a 96-well microtiter plate in whole medium (10% FCS-RPMI) (2500 cells/well) and incubated overnight at 37° C./5% CO2. After 18 hours, the inoculation medium was replaced by fresh medium with 10% FCS. The treatment started with addition of the respective test substance. Of the substances to be investigated, dose-effect curves were determined in a concentration range of 10^−5 M to 10^−14 M (1:10 dilution series). Incubation times of 48 h to 96 h were selected. Proliferation was detected with the help of the MTT assay (ATCC, Manassas, Va., USA, catalog no. 30-1010K). After the end of the selected incubation time, the MTT reagent was incubated with the cells for 4 h before lysis of the cells was performed overnight by adding the detergent. The dye that was formed was detected at 570 nm. The proliferation with otherwise identically treated cells but not with the test substance was defined as the 100% value. The data obtained from this test represents triple determinations, and at least two independent experiments were performed.

Series [2] is described as follows: Cell permeability, flux assay using Caco-2 cells. As to conditions: human; Caco-2 flux assay, basal to apical, 2 h incubation. It is filed as in vitro ADME. As for the experimental part:
(§1) B-4. Determination of Cell Permeability:
(§2) The cell permeability of a substance can be analyzed by in vitro testing in a flux assay using Caco-2 cells [M. D. Troutman and D. R. Thakker, Pharm. Res. 20 (8), 1210-1224 (2003)]. To do so, the cells were cultured for 15-16 days on 24-hole filter plates. To determine the permeation, the respective test substance was applied to the cells either apically (A) or basally (B) in a HEPES buffer and incubated for 2 h. After 0 h and after 2 h, samples were taken from the cis- and trans-compartments. The samples were separated by HPLC (Agilent 1200, Böblingen, Germany) using reverse phase columns. The HPLC system was coupled via a turbo ion spray interface to an API 4000 triple quadrupole mass spectrometer (Applied Biosystems Applera, Darmstadt, Germany). The permeability was evaluated on the basis of a Papp value, which was calculated using the equation published by Schwab et al. [D. Schwab et al., J. Med. Chem. 46, 1717-1725 (2003)]. A substance was classified as being actively transported if the ratio of Papp (B−A) to Papp (A−B) was >2 or <0.5.
(§3) The permeability of B to A [Papp (B−A)] is of crucial importance for toxophores that are released intracellularly. The lower this permeability, the longer is the dwell time of the substance in the cell after intracellular release and thus also the time available for an interaction with the biochemical target (here: tubulin).
(In general: Caco-2 monolayers are a common model of the intestinal barrier.)

In series [3] the test system is Caco-2 cells. Description: Cell permeability, flux assay using Caco-2 cells. The format is in vitro ADME. As to conditions: Caco-2 flux assay, basal to apical, 2 h incubation. The procedure: as §1, §2, §3
Setting [4] is: Homo sapiens, HT-29, HT29 wt cells.

Each structure is given as a SMILES string. Where a SMILES comes first, the peptide text is derived from it. [ ]: non-standard residue; d: D form. The star is where a group is joined. Dolaproine = CO[C@@H]([C@@H]1CCCN1)[C@@H](C)C(=O)O; Dil = CC[C@H](C)[C@H](NC)[C@@H](CC(=O)O)OC; X1 = C[C@@H](N*)[C@@H](O)c1ccccc1; NMeV = CN[C@H](C(=O)O)C(C)C

Consider `CC[C@H](C)[C@@H]([C@@H](CC(=O)N1CCC[C@H]1[C@H](OC)[C@@H](C)C(=O)N[C@H](/C=C\Cc1ccccc1)Cc1ccccc1)OC)N(C)C(=O)[C@@H](NC(=O)[C@H](C(C)C)N(C)CCCC(=O)O)C(C)C` [Example 1, N-(3-Carboxypropyl)-N-methyl-L-valyl-N-[(3R,4S,5S)-1-{(2S)-2-[(1R,2R)-3-{[(2S,3Z)-1,5-diphenylpent-3-en-2-yl]amino}-1-methoxy-2-methyl-3-oxopropyl]pyrrolidin-1-yl}-3-methoxy-5-methyl-1-oxoheptan-4-yl]-N-methyl-L-valinamide], for which, in series [1] (setting [4]), 15 nM corresponded to half-maximal inhibition (IC50).
As for `CC[C@H](C)[C@@H]([C@@H](CC(=O)N1CCC[C@H]1[C@H](OC)[C@@H](C)C(=O)N[C@H](/C=C\c1ccccc1)Cc1ccccc1)OC)N(C)C(=O)[C@@H](NC(=O)[C@H](C(C)C)N(C)CCCC(=O)O)C(C)C` [Example 2, N-(3-Carboxypropyl)-N-methyl-L-valyl-N-[(3R,4S,5S)-1-{(2S)-2-[(1R,2R)-3-{[(2S,3Z)-1,4-diphenylbut-3-en-2-yl]amino}-1-methoxy-2-methyl-3-oxopropyl]pyrrolidin-1-yl}-3-methoxy-5-methyl-1-oxoheptan-4-yl]-N-methyl-L-valinamide], in series [1] (setting [4]), it took 3.3 nM to reach half-maximal inhibition (IC50). In addition, in series [2], the basolateral-to-apical permeability (Papp B→A) (as a rule, the apparent permeability from the basolateral to the apical side of a cell layer) at 2 h worked out at 15.7 ×10⁻⁶ cm/s.
With `CC[C@H](C)[C@@H]([C@@H](CC(=O)N1CCC[C@H]1[C@H](OC)[C@@H](C)C(=O)N[C@H](/C=C/c1ccccc1)Cc1ccccc1)OC)N(C)C(=O)[C@@H](NC(=O)[C@H](C(C)C)N(C)CCCC(=O)O)C(C)C` [Example 3, N-(3-Carboxypropyl)-N-methyl-L-valyl-N-[(3R,4S,5S)-1-{(2S)-2-[(1R,2R)-3-{[(2S,3E)-1,4-diphenylbut-3-en-2-yl]amino}-1-methoxy-2-methyl-3-oxopropyl]pyrrolidin-1-yl}-3-methoxy-5-methyl-1-oxoheptan-4-yl]-N-methyl-L-valinamide], in series [1] (setting [4]), 0.3 nM corresponded to half-maximal inhibition (IC50). The molecule also registered a Papp B→A at 2 h in series [2] of 17.9 ×10⁻⁶ cm/s.
The corresponding values for `CC[C@H](C)[C@@H]([C@@H](CC(=O)N1CCC[C@H]1[C@H](OC)[C@@H](C)C(=O)N[C@@H](Cc1ccccc1)CS(=O)(=O)Cc1ccccc1)OC)N(C)C(=O)[C@@H](NC(=O)[C@H](C(C)C)N(C)CCCC(=O)O)C(C)C` [Example 4] are 1.1 nM and 1.9 ×10⁻⁶ cm/s.
The corresponding values for `CC[C@H](C)[C@@H]([C@@H](CC(=O)N1CCC[C@H]1[C@H](OC)[C@@H](C)C(=O)N[C@@H](Cc1ccccc1)c1nnc(-c2ccccc2)o1)OC)N(C)C(=O)[C@@H](NC(=O)[C@H](C(C)C)N(C)CCCC(=O)O)C(C)C` [Example 5, N-(3-Carboxypropyl)-N-methyl-L-valyl-N-[(3R,4S,5S)-3-methoxy-1-{(2S)-2-[(1R,2R)-1-methoxy-2-methyl-3-oxo-3-{[(1S)-2-phenyl-1-(5-phenyl-1,3,4-oxadiazol-2-yl)ethyl]amino}propyl]pyrrolidin-1-yl}-5-methyl-1-oxoheptan-4-yl]-N-methyl-L-valinamide] are 0.1 nM and 2.9 ×10⁻⁶ cm/s.
The corresponding values for `CC[C@H](C)[C@@H]([C@@H](CC(=O)N1CCC[C@H]1[C@H](OC)[C@@H](C)C(=O)N[C@H](Cc1ccccc1)c1nnc(-c2ccccc2)o1)OC)N(C)C(=O)[C@@H](NC(=O)[C@H](C(C)C)N(C)CCCC(=O)O)C(C)C` [Example 6, N-(3-Carboxypropyl)-N-methyl-L-valyl-N-[(3R,4S,5S)-3-methoxy-1-{(2S)-2-[(1R,2R)-1-methoxy-2-methyl-3-oxo-3-{[(1R)-2-phenyl-1-(5-phenyl-1,3,4-oxadiazol-2-yl)ethyl]amino}propyl]pyrrolidin-1-yl}-5-methyl-1-oxoheptan-4-yl]-N-methyl-L-valinamide] are 0.1 nM and 4.5 ×10⁻⁶ cm/s.
`CC[C@H](C)[C@@H]([C@@H](CC(=O)N1CCC[C@H]1[C@H](OC)[C@@H](C)C(=O)NCCc1c[nH]c2ccccc12)OC)N(C)C(=O)[C@@H](NC(=O)[C@H](C(C)C)N(C)CCCC(=O)O)C(C)C` [Example 7, N-(3-Carboxypropyl)-N-methyl-L-valyl-N-[(3R,4S,5S)-1-{(2S)-2-[(1R,2R)-3-{[2-(1H-indol-3-yl)ethyl]amino}-1-methoxy-2-methyl-3-oxopropyl]pyrrolidin-1-yl}-3-methoxy-5-methyl-1-oxoheptan-4-yl]-N-methyl-L-valinamide] showed a Papp B→A at 2 h in series [2] of 1.1 ×10⁻⁶ cm/s.
Turning to `CC[C@H](C)[C@@H]([C@@H](CC(=O)N1CCC[C@H]1[C@H](OC)[C@@H](C)C(=O)NCCc1ccccc1)OC)N(C)C(=O)[C@@H](NC(=O)[C@H](C(C)C)N(C)CCCC(=O)O)C(C)C` [Example 8, N-(3-Carboxypropyl)-N-methyl-L-valyl-N-[(3R,4S,5S)-3-methoxy-1-{(2S)-2-[(1R,2R)-1-methoxy-2-methyl-3-oxo-3-[(2-phenylethyl)amino]propyl}pyrrolidin-1-yl}-5-methyl-1-oxoheptan-4-yl]-N-methyl-L-valinamide], half-maximal inhibition in series [1] (setting [4]) (IC50) required 0.5 nM. This molecule returned a Papp B→A at 2 h in series [2] of 1 ×10⁻⁶ cm/s.
The like results for `CC[C@H](C)[C@@H]([C@@H](CC(=O)N1CCC[C@H]1[C@H](OC)[C@@H](C)C(=O)N[C@H](C)[C@@H](O)c1ccccc1)OC)N(C)C(=O)[C@@H](NC(=O)[C@H](C(C)C)N(C)CCCC(=O)O)C(C)C` [Example 9, N-(3-Carboxypropyl)-N-methyl-L-valyl-N-[(3R,4S,5S)-1-{(2S)-2-[(1R,2R)-3-{[(1S,2R)-1-hydroxy-1-phenylpropan-2-yl]amino}-1-methoxy-2-methyl-3-oxopropyl]pyrrolidin-1-yl}-3-methoxy-5-methyl-1-oxoheptan-4-yl]-N-methyl-L-valinamide] were, in that order, 6 nM and 0.45 ×10⁻⁶ cm/s.
The corresponding values for `CC[C@H](C)[C@@H]([C@@H](CC(=O)N1CCC[C@H]1[C@H](OC)[C@@H](C)C(=O)N[C@H](/C=C/c1ccc(C(=O)O)cc1)Cc1ccccc1)OC)N(C)C(=O)[C@@H](NC(=O)[C@H](C(C)C)N(C)CCCC(=O)O)C(C)C` [Example 11] are 4.5 nM and 0.2 ×10⁻⁶ cm/s.
Consider `CC[C@H](C)[C@@H]([C@@H](CC(=O)N1CCC[C@H]1[C@H](OC)[C@@H](C)C(=O)N[C@H](C)[C@@H](O)c1ccccc1)OC)N(C)C(=O)[C@@H](NC(=O)[C@@H](NC)C(C)C)C(C)C` [MMAE, monomethylauristatin E, reference compound] (H-[NMeV]V[Dil][Dolaproine]-X1), for which the “Papp (B-A)” value in series [3] is listed as 89 nm/s.
`CC[C@H](C)[C@@H]([C@@H](CC(=O)N1CCC[C@H]1[C@H](OC)[C@@H](C)C(=O)N[C@@H](Cc1ccccc1)C(=O)O)OC)N(C)C(=O)[C@@H](NC(=O)[C@@H](NC)C(C)C)C(C)C` [MMAF, monomethylauristatin F, reference compound] (H-[NMeV]V[Dil][Dolaproine]F-OH): it took 10 nM to reach half-maximal inhibition in series [1] (HT29 wt cells) (IC50). The “Papp (B-A)” value in series [3] is recorded as 73 nm/s.

These data come from patent US9029406B2 (Seattle Genetics, Inc, priority 2011, dated 2015).
